The values that follow come from ChEMBL document CHEMBL3886330, “Substituted azoanthracene derivatives and intermediates for preparation thereof” (2015).

In the assay the target is Glucagon-like peptide 1 receptor (Homo sapiens, UniProt P43220). Type of assay: functional.
Chain of Glucagon-like peptide 1 receptor (P43220 whole entry): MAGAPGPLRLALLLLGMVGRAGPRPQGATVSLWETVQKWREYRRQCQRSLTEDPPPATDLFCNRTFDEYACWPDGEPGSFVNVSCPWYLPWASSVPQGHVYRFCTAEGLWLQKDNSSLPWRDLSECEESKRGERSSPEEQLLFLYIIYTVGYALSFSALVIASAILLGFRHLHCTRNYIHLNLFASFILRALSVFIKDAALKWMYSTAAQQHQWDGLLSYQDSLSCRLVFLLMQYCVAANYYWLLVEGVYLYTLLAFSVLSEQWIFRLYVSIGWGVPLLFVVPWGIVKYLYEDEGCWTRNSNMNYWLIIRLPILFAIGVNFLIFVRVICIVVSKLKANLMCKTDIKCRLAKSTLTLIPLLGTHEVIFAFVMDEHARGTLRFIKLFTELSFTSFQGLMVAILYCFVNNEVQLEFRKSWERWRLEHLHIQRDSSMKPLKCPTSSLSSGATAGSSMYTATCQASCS

What is called EC50 is the concentration needed to bring the measured effect to its halfway point. A lower EC50 goes with an effect from little substance. Take `CCNc1nc(C)c(S(=O)(=O)N2Cc3cc4c(cc3C[C@H]2C(=O)N[C@@H](Cc2ccc(-c3ccc(Cl)cc3)cc2)C(=O)O)OCC(c2ccc(OCc3ccc(Cl)c(Cl)c3)cc2)O4)s1` (stereo partly specified): the response was half-maximal at 264 nM (EC50).
With `CC[C@@H](c1ccccc1)N1Cc2cc3c(cc2C[C@H]1C(=O)N[C@@H](Cc1ccc(-c2ccc(C#N)nc2)cc1)C(=O)O)OC[C@H](c1ccc(OCc2ccc(Cl)c(Cl)c2)cc1)O3` the figure was 154 nM.
With `CCCc1cc(-c2ccc(C[C@H](NC(=O)[C@@H]3Cc4cc5c(cc4CN3[C@@H](CC)c3ccccc3)O[C@@H](c3ccc(OCc4ccc(Cl)c(Cl)c4)cc3)CO5)C(=O)O)cc2)ccn1` the figure was 83 nM; with `Cc1nccc(-c2ccc(C[C@H](NC(=O)[C@@H]3Cc4cc5c(cc4CN3C(=O)Nc3ccc(Cl)cc3)O[C@@H](c3ccc(OCc4ccc(Cl)c(Cl)c4)cc3)CO5)C(=O)O)cc2)c1C`, 96 nM.
In turn, `Cc1nc(NCC2CC2)sc1S(=O)(=O)N1Cc2cc3c(cc2C[C@H]1C(=O)N[C@@H](Cc1ccc(-c2ccc(C#N)cc2)cc1)C(=O)O)OCC(c1ccc(OCc2ccc(Cl)c(Cl)c2)cc1)O3` (stereo partly specified) had a concentration for a half-maximal effect (EC50) of 75 nM.
Consider `N#Cc1ccc(-c2ccc(C[C@H](NC(=O)[C@@H]3Cc4cc5c(cc4CN3C(=O)c3ccccc3)OC(c3ccc(OCc4ccc(Cl)c(Cl)c4)cc3)CN5)C(=O)O)cc2)cc1` (stereo partly specified), for which the response was half-maximal at 410 nM (EC50).
In turn, `CCCCOC(=O)N1Cc2cc3c(cc2C[C@H]1C(=O)N[C@@H](Cc1ccc(-c2ccnc(C)c2C)cc1)C(=O)O)OC[C@H](c1ccc(OCc2ccc(Cl)c(Cl)c2)cc1)O3` showed an EC50 of 64 nM.
With `CCc1cc(-c2ccc(C[C@H](NC(=O)[C@@H]3Cc4cc5c(cc4CN3[C@@H](CC)c3ccccc3)O[C@@H](c3ccc(OCc4ccc(Cl)c(Cl)c4)cc3)CO5)C(=O)O)cc2)ccn1` the figure was 13 nM.
For `CC(=O)Nc1nc(C)c(S(=O)(=O)N2Cc3cc4c(cc3C[C@H]2C(=O)N[C@@H](Cc2ccc(-c3ccnc(C)c3C)cc2)C(=O)O)OC[C@H](c2ccc(OCc3ccc(Cl)c(Cl)c3)cc2)O4)s1` the value was 24 nM.
Take `Cc1nc(NC2CCCC2)sc1S(=O)(=O)N1Cc2cc3c(cc2C[C@H]1C(=O)N[C@@H](Cc1ccc(-c2ccc(C#N)cc2)cc1)C(=O)O)OCC(c1ccc(OCc2ccc(Cl)c(Cl)c2)cc1)O3` (stereo partly specified): the concentration giving a half-maximal response (EC50) worked out at 70 nM.
In the case of `CCCNc1nc(C)c(S(=O)(=O)N2Cc3cc4c(cc3C[C@H]2C(=O)N[C@@H](Cc2ccc(-c3ccc(C#N)cc3)cc2)C(=O)O)OCC(c2ccc(OCc3ccc(Cl)c(Cl)c3)cc2)O4)s1` (stereo partly specified), the EC50 was 67 nM.
`Cc1nc(C(=O)N2Cc3cc4c(cc3C[C@H]2C(=O)N[C@@H](Cc2ccc(Oc3ccnc(C)c3C)cc2)C(=O)O)OC[C@H](c2ccc(OCc3ccc(Cl)c(Cl)c3)cc2)O4)co1`: a half-maximal effect (EC50) was put at 177 nM.
For `CC[C@@H](NC(=O)N1Cc2cc3c(cc2C[C@H]1C(=O)N[C@@H](Cc1ccc(-c2ccnc(C)c2C)cc1)C(=O)O)OC[C@H](c1ccc(OCc2ccc(Cl)c(Cl)c2)cc1)O3)c1ccccc1` the value was 126 nM.
With `Cc1nc(C(=O)N2Cc3cc4c(cc3C[C@H]2C(=O)N[C@@H](Cc2ccc(-c3ccc(C#N)cc3)cc2)C(=O)O)OC[C@H](c2ccc(OCc3ccc(Cl)c(Cl)c3)cc2)O4)c(C)o1` the figure was 156 nM; with `CC[C@@H](c1ccccc1)N1Cc2cc3c(cc2C[C@H]1C(=O)N[C@@H](Cc1ccc(-c2ccnc(F)c2)cc1)C(=O)O)OC[C@H](c1ccc(OCc2ccc(Cl)c(Cl)c2)cc1)O3`, 222 nM; with `Cc1nccc(-c2ccc(C[C@H](NC(=O)[C@@H]3Cc4cc5c(cc4CN3C(=O)OCc3ccccc3)O[C@@H](c3ccc(OCc4ccc(Cl)c(Cl)c4)cc3)CO5)C(=O)O)cc2)c1C`, 23 nM.
With `Cc1nccc(Oc2ccc(C[C@H](NC(=O)[C@@H]3Cc4cc5c(cc4CN3C(=O)OCC(C)C)O[C@@H](c3ccc(OCc4ccc(Cl)c(Cl)c4)cc3)CO5)C(=O)O)cc2)c1C` the figure was 311 nM; with `CCNc1nc(C)c(S(=O)(=O)N2Cc3cc4c(cc3C[C@H]2C(=O)N[C@@H](Cc2ccc(-c3ccc(F)cc3)cc2)C(=O)O)OCC(c2ccc(OCc3ccc(Cl)c(Cl)c3)cc2)O4)s1` (stereo partly specified), 131 nM.
Compound `CC[C@@H](c1ccccc1)N1Cc2cc3c(cc2C[C@H]1C(=O)N[C@@H](Cc1ccc(-c2ccnc(C)c2)cc1)C(=O)O)OC[C@H](c1ccc(OCc2ccc(Cl)c(Cl)c2)cc1)O3` returned an EC50 of 20 nM.
For `Cc1nccc(-c2ccc(C[C@H](NC(=O)[C@@H]3Cc4cc5c(cc4CN3C(=O)OCC(C)(C)C)O[C@@H](c3ccc(OCc4ccc(Cl)c(Cl)c4)cc3)CO5)C(=O)O)cc2)c1C` the value was 87 nM; for `Cc1nccc(-c2ccc(C[C@H](NC(=O)[C@@H]3Cc4cc5c(cc4CN3C(=O)N(C(C)C)C(C)C)O[C@@H](c3ccc(OCc4ccc(Cl)c(Cl)c4)cc3)CO5)C(=O)O)cc2)c1C`, 73 nM.
With `Cc1nccc(Oc2ccc(C[C@H](NC(=O)[C@@H]3Cc4cc5c(cc4CN3C(=O)N[C@H](C)c3ccccc3)O[C@@H](c3ccc(OCc4ccc(Cl)c(Cl)c4)cc3)CO5)C(=O)O)cc2)c1C` the figure was 115 nM; with `Cc1nccc(-c2ccc(C[C@H](NC(=O)[C@@H]3Cc4cc5c(cc4CN3S(C)(=O)=O)O[C@@H](c3ccc(OCc4ccc(Cl)c(Cl)c4)cc3)CO5)C(=O)O)cc2)c1C`, 267 nM; with `Cc1nccc(-c2ccc(C[C@H](NC(=O)[C@@H]3Cc4cc5c(cc4CN3C(=O)c3cnccn3)O[C@@H](c3ccc(OCc4ccc(Cl)c(Cl)c4)cc3)CO5)C(=O)O)cc2)c1C`, 166 nM.
Compound `Cc1nc(C(=O)N2Cc3cc4c(cc3C[C@H]2C(=O)N[C@@H](Cc2ccc(-c3ccnc(C)c3C)cc2)C(=O)O)OC[C@H](c2ccc(OCc3ccc(Cl)c(Cl)c3)cc2)O4)c(C(F)(F)F)o1` gave an EC50 of 42 nM.
For `N#Cc1ccc(-c2ccc(C[C@H](NC(=O)[C@@H]3Cc4cc5c(cc4CN3Cc3ccccc3C#N)OC(c3ccc(OCc4ccc(Cl)c(Cl)c4)cc3)CO5)C(=O)O)cc2)cc1` (stereo partly specified) the value was 657 nM; for `Cc1nccc(-c2ccc(C[C@H](NC(=O)[C@@H]3Cc4cc5c(cc4CN3C(=O)c3cccc(Cl)c3)O[C@@H](c3ccc(OCc4ccc(Cl)c(Cl)c4)cc3)CO5)C(=O)O)cc2)c1C`, 22 nM.
With `Cc1ccc(COc2ccc(C3COc4cc5c(cc4O3)CN(S(=O)(=O)c3sc(N)nc3C)[C@H](C(=O)N[C@@H](Cc3ccc(-c4ccc(C#N)cc4)cc3)C(=O)O)C5)cc2)cc1Cl` (stereo partly specified) the figure was 434 nM; with `Cc1nccc(-c2ccc(C[C@H](NC(=O)[C@@H]3Cc4cc5c(cc4CN3C(=O)N[C@H](C)c3ccccc3)O[C@@H](c3ccc(OCc4ccc(Cl)cc4Cl)cc3)CO5)C(=O)O)cc2)c1C`, 133 nM.
With `Cc1nccc(-c2ccc(C[C@H](NC(=O)[C@@H]3Cc4cc5c(cc4CN3C(=O)c3oc4ccccc4c3C)O[C@@H](c3ccc(OCc4ccc(Cl)c(Cl)c4)cc3)CO5)C(=O)O)cc2)c1C` the figure was 172 nM; with `C[C@@H](NC(=O)N1Cc2cc3c(cc2C[C@H]1C(=O)N[C@@H](Cc1ccc(-c2ccc(C#N)cc2)cc1)C(=O)O)OC[C@H](c1ccc(OCc2ccc(Cl)c(Cl)c2)cc1)O3)c1ccccc1`, 288 nM.
